Source: PMC6085350, “Small molecule inhibitors of RAS-effector protein interactions derived using an intracellular antibody fragment” (Nature Communications, 2018)

Legend:
Assay type in all cases: cell-based
[1] = molecular target: T1, NRAS^Q61H interacting with PI3Kα, PI3Kγ, CRAF-RBD or full-length CRAF and RALGDS-RBD (Homo sapiens, UniProt P01111, Q61H); assay: BRET2 RAS-effector PPI assay, NRAS Q61H; settings: HEK293T, 5, 10 and 20 μM
T1 construct: Transfection vector encoded full-length RAS was fused to the donor molecule RLuc8; expressed in transfected cells; host or cells: HEK293T
From the text: (§1) Fig. 4 Abd-7 disrupting RAS-effector interactions. HEK293T cells were transfected with different BRET-based RAS biosensor expression vectors to evaluate the inhibition of RAS PPI in cells by compound Abd-7. Transfection vector encoded full-length RAS was fused to the donor molecule RLuc8 and the effectors fused to the acceptor molecule GFP[2]. a Effect of Abd-2 and Abd-7 on KRAS^G12D interaction with PI3Kα, PI3Kγ, CRAF or RALGDS. The BRET signal is plotted as a % of control cells treated with DMSO only and dose response to 5, 10 and 20 μM of each compound. b Effect of Abd-2 and Abd-7 on the BRET signal from interaction of KRAS^G12 mutants (Rluc8-KRAS^G12) and full-length CRAF (GFP[2]-CRAF FL). c, d Effect of Abd-2 and Abd-7 on the interaction of NRAS^Q61H (c) and HRAS^G12V (d) with various RAS effectors domain and with full-length CRAF. The BRET ratio corresponds to the light emitted by the GFP[2] acceptor constructs (515 nm ± 30) upon addition of Coelenterazine 400a divided by the light emitted by the RLuc8 donor constructs (410 nm ± 80). The normalized BRET ratio is the BRET ratio normalized to the DMSO negative and calculated as follows: (BRETcompound/BRETDMSO) x 100, where BRETcompound corresponds to the BRET ratio for the compound-treated cells, BRETDMSO to the DMSO-treated cells. Each experiment was repeated at least three times. […]

[2] = molecular target: T2, HRAS^G12V interacting with PI3Kα, PI3Kγ, CRAF-RBD or full-length CRAF and RALGDS-RBD (Homo sapiens, UniProt P01112, G12V); assay: BRET2 RAS-effector PPI assay, HRAS G12V; settings: HEK293T, 5, 10 and 20 μM
T2 construct: Transfection vector encoded full-length RAS was fused to the donor molecule RLuc8; expressed in transfected cells; host or cells: HEK293T
From the text: as §1

[3] = molecular target: T3, KRAS^G12D interaction with PI3Kα, PI3Kγ, CRAF RBD and RALGDS RA (Homo sapiens, UniProt P01116, G12D); assay: BRET2 RAS-effector PPI assay, KRAS G12D; settings: HEK293T, 5, 10 and 20 μM, 20 h
T3 construct: Transfection vector encoded full-length RAS was fused to the donor molecule RLuc8; expressed in transfected cells; host or cells: HEK293T
From the text: as §1

Row | SMILES | effect on BRET signal, NRAS^Q61H with effectors [1] | effect on BRET signal, HRAS^G12V with effectors [2] | effect on BRET signal, KRAS^G12D with PI3Kα, PI3Kγ, CRAF RBD, RALGDS RA [3]
1 | O=C(NCC1COc2ccccc2O1)c1ccco1 (stereo not drawn) [Abd-2] | does not | does not | no effect
2 | COc1nc(-c2cccc3c2OCCO3)ccc1Nc1ccc(CN(C)C)cc1 [Abd-7] | interferes | interferes | reduces the BRET signal
